Measurements reported in US10898475B2, “Bach1 inhibitors in combination with Nrf2 activators and pharmaceutical compositions thereof” (vTv Therapeutics LLC, priority 2014, dated 2021).

Tested on: HMOX1 in Normal Human Lung Fibroblasts (NHLF)
Assay: HMOX1 Protein Expression (immunostaining, fold induction or % positive cells over DMSO)
[1] = Homo sapiens, Fibroblast, read-out: Fold Induction of HMOX

Protocol: Normal Human Lung Fibroblasts (NHLF) obtained from Lonza were cultured in T-225 flasks using conditions recommended by the vendor (FGM-2 medium supplemented with 2% fetal bovine serum (FBS), fibroblast growth factor (hFGF-B) 0.5 mL, insulin 0.5 mL, and gentamicin/amphotericin-B 0.5 mL at 37° C. in a humidified atmosphere of 5% CO2).
For assays, cell were thawed and placed into culture in T225 flasks, grown to be 80% confluent, and harvested as described by the vendor. NHLF cells (2.5×10^4 cells per well) were plated in 384 well optilux tissue culture (BD) plates and incubated overnight in media prior to exposure to compound. Cells were incubated with DMSO or various combinations of either an Nrf2 Activator (DMF (dimethyl fumarate)/CDDO-Me) or a Bach1 Inhibitor for 16-18 hr. Cells were then fixed and permeabilized prior to incubation with HMOX1 antibody (abcam; 1:300 dilution in 1% BSA in PBS) for 1 hour. Cells were then washed and incubated with a solution of fluorescently-coupled goat anti-mouse antibody (Alexa 488 1:400 dilution Invitrogen) and Hoechst nuclear stain (1:2000; Invitrogen) in PBS containing 1% BSA for 1 hr. Immunostaining was detected using a GE InCell 2000 instrument at the following wavelengths: Hoechst Ex/Em 360/535 and Alexa 488 Ex/Em 480/535. Results were analyzed using GE InCell Analyzer software and represented as the increase fold of HMOX1 induction (Fold induction/FI) or the percentage of HMOX1 positive (% positive) cells over DMSO.

## CNC(=O)c1ccc2c(c1)nc(Nc1nc3ccc(OC(F)(F)F)cc3s1)n2C [HPP-A, 1-Methyl-2-(6-trifluoromethoxy-benzothiazol-2-ylamino)-1H-benzoimidazole-5-carboxylic acid methyl amide]
156 nM HPP-A alone
  increase HMOX1 (FIG. 1 bar A): 3.5 fold
156 nM HPP-A combined with 9.7 nM CDDO-Me
  combined effect on HMOX induction (FIG. 1 bar C): greater than additive
HPP-A 0.019 uM, Bardoxolone Methyl 0 uM
  Fold Induction of HMOX: 0.97 fold
HPP-A 0.019 uM, Bardoxolone Methyl 0.0024 uM
  Fold Induction of HMOX: 3.24 fold
HPP-A 0.019 uM, Bardoxolone Methyl 0.0048 uM
  Fold Induction of HMOX: 2.88 fold
HPP-A 0.019 uM, Bardoxolone Methyl 0.0097 uM
  Fold Induction of HMOX: 7.14 fold
HPP-A 0.019 uM, Bardoxolone Methyl 0.039 uM
  Fold Induction of HMOX: 15.87 fold
HPP-A 0.019 uM, Bardoxolone Methyl 0.078 uM
  Fold Induction of HMOX: 22.27 fold
HPP-A 0.019 uM, Bardoxolone Methyl 0.156 uM
  Fold Induction of HMOX: 22.90 fold
HPP-A 0.019 uM, Bardoxolone Methyl 0.312 uM
  Fold Induction of HMOX: 17.20 fold
HPP-A 0.039 uM, Bardoxolone Methyl 0 uM
  Fold Induction of HMOX: 1.09 fold
HPP-A 0.039 uM, Bardoxolone Methyl 0.0024 uM
  Fold Induction of HMOX: 2.32 fold
HPP-A 0.039 uM, Bardoxolone Methyl 0.0048 uM
  Fold Induction of HMOX: 3.04 fold
HPP-A 0.039 uM, Bardoxolone Methyl 0.0097 uM
  Fold Induction of HMOX: 5.31 fold
HPP-A 0.039 uM, Bardoxolone Methyl 0.019 uM
  Fold Induction of HMOX: 8.57 fold
HPP-A 0.039 uM, Bardoxolone Methyl 0.078 uM
  Fold Induction of HMOX: 18.69 fold
HPP-A 0.039 uM, Bardoxolone Methyl 0.156 uM
  Fold Induction of HMOX: 17.24 fold
HPP-A 0.039 uM, Bardoxolone Methyl 0.312 uM
  Fold Induction of HMOX: 17.44 fold
HPP-A 0.078 uM, Bardoxolone Methyl 0 uM
  Fold Induction of HMOX: 1.92 fold
HPP-A 0.078 uM, Bardoxolone Methyl 0.0024 uM
  Fold Induction of HMOX: 4.25 fold
HPP-A 0.078 uM, Bardoxolone Methyl 0.0048 uM
  Fold Induction of HMOX: 4.72 fold
HPP-A 0.078 uM, Bardoxolone Methyl 0.0097 uM
  Fold Induction of HMOX: 8.43 fold
HPP-A 0.078 uM, Bardoxolone Methyl 0.019 uM
  Fold Induction of HMOX: 13.21 fold
HPP-A 0.078 uM, Bardoxolone Methyl 0.039 uM
  Fold Induction of HMOX: 17.81 fold
HPP-A 0.078 uM, Bardoxolone Methyl 0.156 uM
  Fold Induction of HMOX: 17.88 fold
HPP-A 0.078 uM, Bardoxolone Methyl 0.312 uM
  Fold Induction of HMOX: 15.33 fold
HPP-A 0.156 uM, Bardoxolone Methyl 0 uM
  Fold Induction of HMOX: 3.46 fold
HPP-A 0.156 uM, Bardoxolone Methyl 0.0024 uM
  Fold Induction of HMOX: 7.32 fold
HPP-A 0.156 uM, Bardoxolone Methyl 0.0048 uM
  Fold Induction of HMOX: 8.04 fold
HPP-A 0.156 uM, Bardoxolone Methyl 0.0097 uM
  Fold Induction of HMOX: 12.05 fold
HPP-A 0.156 uM, Bardoxolone Methyl 0.019 uM
  Fold Induction of HMOX: 15.95 fold
HPP-A 0.156 uM, Bardoxolone Methyl 0.039 uM
  Fold Induction of HMOX: 17.59 fold
HPP-A 0.156 uM, Bardoxolone Methyl 0.078 uM
  Fold Induction of HMOX: 18.44 fold
HPP-A 0.156 uM, Bardoxolone Methyl 0.312 uM
  Fold Induction of HMOX: 15.98 fold
HPP-A 0.312 uM, Bardoxolone Methyl 0 uM
  Fold Induction of HMOX: 9.82 fold
HPP-A 0.312 uM, Bardoxolone Methyl 0.0024 uM
  Fold Induction of HMOX: 11.67 fold
HPP-A 0.312 uM, Bardoxolone Methyl 0.0048 uM
  Fold Induction of HMOX: 13.59 fold
HPP-A 0.312 uM, Bardoxolone Methyl 0.0097 uM
  Fold Induction of HMOX: 16.45 fold
HPP-A 0.312 uM, Bardoxolone Methyl 0.019 uM
  Fold Induction of HMOX: 17.74 fold
HPP-A 0.312 uM, Bardoxolone Methyl 0.039 uM
  Fold Induction of HMOX: 19.61 fold
HPP-A 0.312 uM, Bardoxolone Methyl 0.078 uM
  Fold Induction of HMOX: 21.13 fold
HPP-A 0.312 uM, Bardoxolone Methyl 0.156 uM
  Fold Induction of HMOX: 19.21 fold
HPP-A 0.625 uM, Bardoxolone Methyl 0 uM
  Fold Induction of HMOX: 15.00 fold
HPP-A 0.625 uM, Bardoxolone Methyl 0.0024 uM
  Fold Induction of HMOX: 15.70 fold
HPP-A 0.625 uM, Bardoxolone Methyl 0.0048 uM
  Fold Induction of HMOX: 17.10 fold
HPP-A 0.625 uM, Bardoxolone Methyl 0.0097 uM
  Fold Induction of HMOX: 17.18 fold
HPP-A 0.625 uM, Bardoxolone Methyl 0.019 uM
  Fold Induction of HMOX: 16.84 fold
HPP-A 0.625 uM, Bardoxolone Methyl 0.039 uM
  Fold Induction of HMOX: 17.24 fold
HPP-A 0.625 uM, Bardoxolone Methyl 0.078 uM
  Fold Induction of HMOX: 18.60 fold
HPP-A 0.625 uM, Bardoxolone Methyl 0.156 uM
  Fold Induction of HMOX: 18.68 fold
HPP-A 0.625 uM, Bardoxolone Methyl 0.312 uM
  Fold Induction of HMOX: 12.69 fold
HPP-A 1.25 uM, Bardoxolone Methyl 0 uM
  Fold Induction of HMOX: 16.17 fold
HPP-A 1.25 uM, Bardoxolone Methyl 0.0024 uM
  Fold Induction of HMOX: 16.12 fold
HPP-A 1.25 uM, Bardoxolone Methyl 0.0048 uM
  Fold Induction of HMOX: 17.26 fold
HPP-A 1.25 uM, Bardoxolone Methyl 0.0097 uM
  Fold Induction of HMOX: 16.49 fold
HPP-A 1.25 uM, Bardoxolone Methyl 0.019 uM
  Fold Induction of HMOX: 15.93 fold
HPP-A 1.25 uM, Bardoxolone Methyl 0.039 uM
  Fold Induction of HMOX: 15.63 fold
HPP-A 1.25 uM, Bardoxolone Methyl 0.078 uM
  Fold Induction of HMOX: 15.15 fold
HPP-A 1.25 uM, Bardoxolone Methyl 0.156 uM
  Fold Induction of HMOX: 16.65 fold
HPP-A 1.25 uM, Bardoxolone Methyl 0.312 uM
  Fold Induction of HMOX: 10.53 fold
HPP-A 2.5 uM, Bardoxolone Methyl 0 uM
  Fold Induction of HMOX: 17.48 fold
HPP-A 2.5 uM, Bardoxolone Methyl 0.0024 uM
  Fold Induction of HMOX: 18.81 fold
HPP-A 2.5 uM, Bardoxolone Methyl 0.0048 uM
  Fold Induction of HMOX: 19.48 fold
HPP-A 2.5 uM, Bardoxolone Methyl 0.0097 uM
  Fold Induction of HMOX: 19.42 fold
HPP-A 2.5 uM, Bardoxolone Methyl 0.019 uM
  Fold Induction of HMOX: 17.04 fold
HPP-A 2.5 uM, Bardoxolone Methyl 0.039 uM
  Fold Induction of HMOX: 14.71 fold
HPP-A 2.5 uM, Bardoxolone Methyl 0.078 uM
  Fold Induction of HMOX: 14.33 fold
HPP-A 2.5 uM, Bardoxolone Methyl 0.156 uM
  Fold Induction of HMOX: 12.49 fold
HPP-A 5 uM, Bardoxolone Methyl 0 uM
  Fold Induction of HMOX: 17.72 fold
HPP-A alone, concentrations greater than or equal to 2500 nM
  maximum HMOX1 fold induction: 18 fold
[1]
  fold induction at 0.019 µM: 10
  fold induction at 0.039 µM: 14.7
  fold induction at 0.078 µM: 19.5
  fold induction at 0.156 µM: 18.3
  fold induction at 0.312 µM: 17.4
